Laboratory results taken from ChEMBL document CHEMBL2146447, “Synthesis and antimicrobial activity of amido linked pyrrolyl and pyrazolyl-oxazoles, thiazoles and imidazoles” (2011).
Activity calls are given as the source filed them. The calls are words filed in the database; no cut-off is given here.

Tests used:
Format in all cases: functional
Aspergillus niger [1] = assay: Antifungal activity against Aspergillus niger at 100 ug after 48 hrs by agar well diffusion method; conditions: for zone of inhibition at 100 µg/disc: read-out: DIZ
Staphylococcus aureus [2] = assay: Antibacterial activity against Staphylococcus aureus at 100 ug after 24 hrs by agar well diffusion method; conditions: for zone of inhibition at 100 µg/disc: read-out: DIZ
Bacillus subtilis [3] = assay: Antibacterial activity against Bacillus subtilis at 50 ug after 24 hrs by agar well diffusion method; conditions: for zone of inhibition at 50 µg/disc: read-out: DIZ
Klebsiella pneumoniae [4] = assay: Antibacterial activity against Klebsiella pneumoniae at 50 ug after 24 hrs by agar well diffusion method; conditions: for zone of inhibition at 50 µg/disc: read-out: DIZ
Klebsiella pneumoniae [5] = assay: Antibacterial activity against Klebsiella pneumoniae at 100 ug after 24 hrs by agar well diffusion method; conditions: for zone of inhibition at 100 µg/disc: read-out: DIZ
Penicillium chrysogenum [6] = assay: Antifungal activity against Penicillium chrysogenum at 100 ug after 48 hrs by agar well diffusion method; conditions: for zone of inhibition at 100 µg/disc: read-out: DIZ
Penicillium chrysogenum [7] = assay: Antifungal activity against Penicillium chrysogenum at 50 ug after 48 hrs by agar well diffusion method; conditions: for zone of inhibition at 50 µg/disc: read-out: DIZ
Pseudomonas aeruginosa [8] = assay: Antibacterial activity against Pseudomonas aeruginosa at 50 ug after 24 hrs by agar well diffusion method; conditions: for zone of inhibition at 50 µg/disc: read-out: DIZ
Aspergillus niger [9] = assay: Antifungal activity against Aspergillus niger at 50 ug after 48 hrs by agar well diffusion method; conditions: for zone of inhibition at 50 µg/disc: read-out: DIZ
Bacillus subtilis [10] = assay: Antibacterial activity against Bacillus subtilis at 100 ug after 24 hrs by agar well diffusion method; conditions: for zone of inhibition at 100 µg/disc: read-out: DIZ
Staphylococcus aureus [11] = assay: Antibacterial activity against Staphylococcus aureus assessed at 50 ug after 24 hrs by agar well diffusion method; conditions: for zone of inhibition at 50 µg/disc: read-out: DIZ
Pseudomonas aeruginosa [12] = assay: Antibacterial activity against Pseudomonas aeruginosa at 100 ug after 24 hrs by agar well diffusion method; conditions: for zone of inhibition at 100 µg/disc: read-out: DIZ

SMILES | zone of inhibition at 100 µg/disc (Aspergillus niger [1]) | zone of inhibition at 100 µg/disc (Staphylococcus aureus [2]) | zone of inhibition at 50 µg/disc (Bacillus subtilis [3]) | zone of inhibition at 50 µg/disc (Klebsiella pneumoniae [4]) | zone of inhibition at 100 µg/disc (Klebsiella pneumoniae [5]) | zone of inhibition at 100 µg/disc (Penicillium chrysogenum [6]) | zone of inhibition at 50 µg/disc (Penicillium chrysogenum [7]) | zone of inhibition at 50 µg/disc (Pseudomonas aeruginosa [8]) | zone of inhibition at 50 µg/disc (Aspergillus niger [9]) | zone of inhibition at 100 µg/disc (Bacillus subtilis [10]) | zone of inhibition at 50 µg/disc (Staphylococcus aureus [11]) | zone of inhibition at 100 µg/disc (Pseudomonas aeruginosa [12]) | further results
O=C(Nc1nc(-c2ccccc2)c[nH]1)C1=NNCC1c1ccccc1 (stereo not drawn) | 15 mm | 14 mm | 15 mm | 17 mm | 19 mm | 17 mm | 14 mm | 12 mm | 13 mm | 17 mm | 12 mm | 14 mm | 
O=C(Nc1nc(-c2ccccc2)co1)C1=NNCC1c1ccccc1 (stereo not drawn) |  |  |  |  |  |  |  |  |  |  |  |  | diameter of the inhibition zone (DIZ) (Aspergillus niger [1]): inactive; diameter of the inhibition zone (DIZ) (Staphylococcus aureus [2]): inactive; diameter of the inhibition zone (DIZ) (Bacillus subtilis [3]): inactive; diameter of the inhibition zone (DIZ) (Klebsiella pneumoniae [4]): inactive; diameter of the inhibition zone (DIZ) (Klebsiella pneumoniae [5]): inactive; diameter of the inhibition zone (DIZ) (Penicillium chrysogenum [6]): inactive; diameter of the inhibition zone (DIZ) (Penicillium chrysogenum [7]): inactive; diameter of the inhibition zone (DIZ) (Pseudomonas aeruginosa [8]): inactive; diameter of the inhibition zone (DIZ) (Aspergillus niger [9]): inactive; diameter of the inhibition zone (DIZ) (Bacillus subtilis [10]): inactive; diameter of the inhibition zone (DIZ) (Staphylococcus aureus [11]): inactive; diameter of the inhibition zone (DIZ) (Pseudomonas aeruginosa [12]): inactive
Cc1ccc(-c2c[nH]c(NC(=O)C3=NNCC3c3ccccc3)n2)cc1 (stereo not drawn) | 14 mm | 13 mm | 14 mm | 16 mm | 18 mm | 16 mm | 13 mm | 11 mm | 11 mm | 16 mm | 11 mm | 13 mm | 
O=C(Nc1nc(-c2ccccc2)c[nH]1)c1c[nH]cc1-c1ccccc1 | 18 mm | 17 mm | 18 mm | 20 mm | 22 mm | 20 mm | 17 mm | 14 mm | 16 mm | 20 mm | 15 mm | 15 mm | 
O=C(Nc1nc(-c2ccccc2)cs1)c1c[nH]cc1-c1ccccc1 | 20 mm | 19 mm | 20 mm | 22 mm | 24 mm | 22 mm | 19 mm | 15 mm | 18 mm | 22 mm | 17 mm | 16 mm | 
O=C(Nc1nc(-c2ccc(Cl)cc2)cs1)c1n[nH]cc1-c1ccccc1 | 32 mm | 29 mm | 28 mm | 30 mm | 33 mm | 34 mm | 31 mm | 24 mm | 30 mm | 31 mm | 27 mm | 26 mm | 
Cc1ccc(-c2csc(NC(=O)c3c[nH]cc3-c3ccccc3)n2)cc1 | 19 mm | 18 mm | 19 mm | 21 mm | 23 mm | 21 mm | 18 mm | 13 mm | 18 mm | 21 mm | 16 mm | 15 mm | 
O=C(Nc1nc(-c2ccc(Cl)cc2)co1)C1=NNCC1c1ccccc1 (stereo not drawn) | 25 mm | 18 mm | 17 mm | 22 mm | 24 mm | 27 mm | 24 mm | 17 mm | 23 mm | 20 mm | 17 mm | 19 mm | 
Cc1ccc(-c2coc(NC(=O)c3n[nH]cc3-c3ccccc3)n2)cc1 |  |  |  |  |  |  |  |  |  |  |  |  | diameter of the inhibition zone (DIZ) (Aspergillus niger [1]): inactive; diameter of the inhibition zone (DIZ) (Staphylococcus aureus [2]): inactive; diameter of the inhibition zone (DIZ) (Bacillus subtilis [3]): inactive; diameter of the inhibition zone (DIZ) (Klebsiella pneumoniae [4]): inactive; diameter of the inhibition zone (DIZ) (Klebsiella pneumoniae [5]): inactive; diameter of the inhibition zone (DIZ) (Penicillium chrysogenum [6]): inactive; diameter of the inhibition zone (DIZ) (Penicillium chrysogenum [7]): inactive; diameter of the inhibition zone (DIZ) (Pseudomonas aeruginosa [8]): inactive; diameter of the inhibition zone (DIZ) (Aspergillus niger [9]): inactive; diameter of the inhibition zone (DIZ) (Bacillus subtilis [10]): inactive; diameter of the inhibition zone (DIZ) (Staphylococcus aureus [11]): inactive; diameter of the inhibition zone (DIZ) (Pseudomonas aeruginosa [12]): inactive
